Measurements: ChEMBL document CHEMBL4376834, “Discovery of 4H-Chromen-4-one Derivatives as a New Class of Selective Rho Kinase (ROCK) Inhibitors, which Showed Potent Activity in ex Vivo Diabetic Retinopathy Models” (J Med Chem, 2019)

Tests used:
[1] = molecular target: Tyrosine-protein kinase Fes/Fps (Homo sapiens, UniProt P07332); assay: Inhibition of recombinant human FES (2 to end residues) using poly(Glu, Tyr) 4:1 as substrate after 40 mins in presence of [gamma-33ATP] by radiometric scintillation counting analysis
[2] = molecular target: Serine/threonine-protein kinase MAK (Homo sapiens, UniProt P20794); assay: Inhibition of recombinant human MAK using RRRFRPASPLRGP as substrate after 120 mins in presence of [gamma-33ATP] by radiometric scintillation counting analysis
[3] = molecular target: Serine/threonine-protein kinase MRCK beta (Homo sapiens, UniProt Q9Y5S2); assay: Inhibition of recombinant human MRCKbeta (1 to 473 residues) using KKRNRTLTV as substrate incubated for 40 mins in presence of [gamma-33ATP by radiometric scintillation counting analysis
[4] = molecular target: Serine/threonine-protein kinase D2 (Homo sapiens, UniProt Q9BZL6); assay: Inhibition of recombinant full-length human PKD2 using KKLNRTLSVA as substrate incubated for 40 mins in presence of [gamma33P]ATP by radiometric scintillation counting analysis
[5] = molecular target: Calcium/calmodulin-dependent protein kinase kinase 1 (Homo sapiens, UniProt Q8N5S9); assay: Inhibition of recombinant full length human CaMKK1 using calmodulin as substrate incubated for 40 mins in presence of [gamma-33ATP] by radiometric scintillation counting analysis
[6] = molecular target: Mitogen-activated protein kinase kinase kinase 7 (Homo sapiens, UniProt O43318); assay: Inhibition of recombinant human TAK1 (1 to 303 residues) using casein as substrate incubated for 40 mins in presence of [gamma33P]ATP by radiometric scintillation counting analysis
[7] = molecular target: Platelet-derived growth factor receptor alpha (Homo sapiens, UniProt P16234); assay: Inhibition of human PDGFRalpha (550 to end residues) using poly(Glu, Tyr) 4:1 as substrate measured after 40 mins in presence of [gamma33P]ATP by radiometric scintillation counting analysis
[8] = molecular target: Serine/threonine-protein kinase N1 (Homo sapiens, UniProt Q16512, V901I); assay: Inhibition of recombinant human PRK1 V901I (498 to end residues) using KKLNRTLSFAEPG as substrate incubated for 40 mins in presence of [gamma33P]ATP by radiometric scintillation counting analysis
CDK12/Cyclin K = CDK12/Cyclin K (Homo sapiens, UniProt Q9NYV4); assay: Inhibition of recombinant full length human CDK12/cyclinK using RSRSRSRSRSRSR as substrate incubated for 120 mins in presence of [gamma-33ATP] by radiometric scintillation counting analysis; assay type: protein-complex assay
[9] = molecular target: Serine/threonine-protein kinase WNK2 (Homo sapiens, UniProt Q9Y3S1); assay: Inhibition of recombinant human WNK2 (166 to 489 residues) using myelin basic protein as substrate incubated for 40 mins in presence of [gamma33P]ATP by radiometric scintillation counting analysis
[10] = molecular target: Platelet-derived growth factor receptor alpha (Homo sapiens, UniProt P16234, D842V); assay: Inhibition of human PDGFRalpha D842V mutant (550 to end residues) using GGMEDIYFEFMGG as substrate measured after 40 mins in presence of [gamma33P]ATP by radiometric scintillation counting analysis
[11] = molecular target: Epidermal growth factor receptor (Homo sapiens, UniProt P00533); assay: Inhibition of recombinant human EGFR (696 to end residues) using poly(Glu, Tyr) 4:1 as substrate after 40 mins in presence of [gamma-33ATP] by radiometric scintillation counting analysis
[12] = molecular target: Serine/threonine-protein kinase Nek4 (Homo sapiens, UniProt P51957, P225A); assay: Inhibition of recombinant full-length human NEK4 P225A mutant using myelin basic protein as substrate measured after 40 mins in presence of [gamma33P]ATP by radiometric scintillation counting analysis
Ephrin type-A receptor 1 = Ephrin type-A receptor 1 (Homo sapiens, UniProt P21709); assay: Inhibition of recombinant human EphA1 (568 to end residues) using KKKSPGEYVNIEF as substrate after 40 mins in presence of [gamma-33ATP] by radiometric scintillation counting analysis
SRSF protein kinase 1 = SRSF protein kinase 1 (Homo sapiens, UniProt Q96SB4); assay: Inhibition of recombinant human SRPK1 (2 to end residues) using RSRSRSRSRSRSRSR as substrate incubated for 40 mins in presence of [gamma33P]ATP by radiometric scintillation counting analysis
[13] = molecular target: Serine/threonine-protein kinase ULK2 (Homo sapiens, UniProt Q8IYT8); assay: Inhibition of recombinant human ULK2 (1 to 306 residues) using casein as substrate incubated for 40 mins in presence of [gamma33P]ATP by radiometric scintillation counting analysis
[14] = molecular target: Serine/threonine-protein kinase Chk2 (Homo sapiens, UniProt O96017, I157T); assay: Inhibition of recombinant human CHK2 I157T mutant (5 to end residues) using KKKVSRSGLYRSP as substrate incubated for 40 mins in presence of [gamma-33ATP] by radiometric scintillation counting analysis
[15] = molecular target: Insulin-like growth factor 1 receptor (Homo sapiens, UniProt P08069); assay: Inhibition of human recombinant activated IGF1R (959 to end residues) using KKKSPGEYVNIEF as substrate after 40 mins by [gamma-33ATP] by radiometric scintillation counting analysis
[16] = molecular target: Serine/threonine-protein kinase SBK1 (Homo sapiens, UniProt Q52WX2); assay: Inhibition of recombinant full-length human SBK1 using KKLRRTLSVA as substrate incubated for 120 mins in presence of [gamma33P]ATP by radiometric scintillation counting analysis
[17] = molecular target: Fibroblast growth factor receptor 1 (Homo sapiens, UniProt P11362); assay: Inhibition of recombinant human FGFR1 (456 to 765 residues) using KKKSPGEYVNIEF as substrate after 40 mins in presence of [gamma-33ATP] by radiometric scintillation counting analysis
[18] = molecular target: Serine/threonine-protein kinase Nek3 (Homo sapiens, UniProt P51956); assay: Inhibition of recombinant full-length human NEK3 using myelin basic protein as substrate measured after 40 mins in presence of [gamma33P]ATP by radiometric scintillation counting analysis
[19] = molecular target: Dual specificity protein kinase CLK1 (Homo sapiens, UniProt P49759); assay: Inhibition of recombinant human CLK1 (130 to end residues) using ERMRPRKRQGSVR as substrate incubated 40 mins in presence of [gamma-33ATP] by radiometric scintillation counting analysis
[20] = molecular target: Homeodomain-interacting protein kinase 1 (Homo sapiens, UniProt Q86Z02); assay: Inhibition of human recombinant HIPK1 (158 to 555 residues) using myelin basic protein as substrate after 40 mins by [gamma-33ATP] radiometric assay
[21] = molecular target: Casein kinase I isoform gamma-1 (Homo sapiens, UniProt Q9HCP0); assay: Inhibition of recombinant human CK1gamma1(25 to 355 residues) using KRRRALS(p)VAS as substrate incubated for 40 mins in presence of [gamma-33ATP] by radiometric scintillation counting analysis
[22] = molecular target: Serine/threonine-protein kinase Sgk3 (Homo sapiens, UniProt Q96BR1); assay: Inhibition of recombinant human SGK3 (119 to end residues) using GRPRTSSFAEGKK as substrate incubated for 40 mins in presence of [gamma33P]ATP by radiometric scintillation counting analysis

Measured: IC50

Tyrosine-protein kinase Fes/Fps, sequence (P07332 whole entry): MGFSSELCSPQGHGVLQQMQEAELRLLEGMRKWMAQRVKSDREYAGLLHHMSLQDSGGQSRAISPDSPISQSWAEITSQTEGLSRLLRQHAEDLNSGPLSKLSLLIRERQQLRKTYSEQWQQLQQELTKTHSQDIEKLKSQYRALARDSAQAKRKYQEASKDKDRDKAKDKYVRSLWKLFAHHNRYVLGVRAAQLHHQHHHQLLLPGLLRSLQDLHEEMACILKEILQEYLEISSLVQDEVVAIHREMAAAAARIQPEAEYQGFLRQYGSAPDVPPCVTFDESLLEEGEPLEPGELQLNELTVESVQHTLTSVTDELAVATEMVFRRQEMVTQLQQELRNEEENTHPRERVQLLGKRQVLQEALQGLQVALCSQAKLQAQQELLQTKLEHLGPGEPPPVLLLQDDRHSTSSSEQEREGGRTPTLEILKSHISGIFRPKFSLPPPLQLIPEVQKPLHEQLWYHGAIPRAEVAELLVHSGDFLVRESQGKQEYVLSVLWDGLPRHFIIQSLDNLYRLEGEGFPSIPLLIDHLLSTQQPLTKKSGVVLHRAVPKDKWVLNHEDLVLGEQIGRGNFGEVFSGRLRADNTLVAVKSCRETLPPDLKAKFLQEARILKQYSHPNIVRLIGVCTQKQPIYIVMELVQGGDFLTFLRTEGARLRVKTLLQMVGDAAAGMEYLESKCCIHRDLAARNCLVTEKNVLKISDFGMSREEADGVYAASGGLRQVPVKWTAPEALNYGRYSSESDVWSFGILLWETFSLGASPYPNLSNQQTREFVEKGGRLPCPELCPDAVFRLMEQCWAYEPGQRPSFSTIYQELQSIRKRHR
Serine/threonine-protein kinase Nek3, sequence (P51956 whole entry): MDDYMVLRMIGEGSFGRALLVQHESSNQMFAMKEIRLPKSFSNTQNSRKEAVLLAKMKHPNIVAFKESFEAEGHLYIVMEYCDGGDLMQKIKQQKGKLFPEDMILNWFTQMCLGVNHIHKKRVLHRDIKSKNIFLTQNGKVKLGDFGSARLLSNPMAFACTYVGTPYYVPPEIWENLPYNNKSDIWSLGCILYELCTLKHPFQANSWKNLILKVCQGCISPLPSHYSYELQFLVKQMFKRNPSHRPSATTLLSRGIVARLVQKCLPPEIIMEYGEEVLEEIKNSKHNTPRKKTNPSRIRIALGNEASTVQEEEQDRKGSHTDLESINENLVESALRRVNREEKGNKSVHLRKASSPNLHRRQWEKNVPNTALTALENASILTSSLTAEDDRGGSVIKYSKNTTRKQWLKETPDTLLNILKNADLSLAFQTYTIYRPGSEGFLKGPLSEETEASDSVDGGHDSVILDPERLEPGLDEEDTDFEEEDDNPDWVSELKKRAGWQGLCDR
Serine/threonine-protein kinase Chk2, sequence (O96017 whole entry I157T): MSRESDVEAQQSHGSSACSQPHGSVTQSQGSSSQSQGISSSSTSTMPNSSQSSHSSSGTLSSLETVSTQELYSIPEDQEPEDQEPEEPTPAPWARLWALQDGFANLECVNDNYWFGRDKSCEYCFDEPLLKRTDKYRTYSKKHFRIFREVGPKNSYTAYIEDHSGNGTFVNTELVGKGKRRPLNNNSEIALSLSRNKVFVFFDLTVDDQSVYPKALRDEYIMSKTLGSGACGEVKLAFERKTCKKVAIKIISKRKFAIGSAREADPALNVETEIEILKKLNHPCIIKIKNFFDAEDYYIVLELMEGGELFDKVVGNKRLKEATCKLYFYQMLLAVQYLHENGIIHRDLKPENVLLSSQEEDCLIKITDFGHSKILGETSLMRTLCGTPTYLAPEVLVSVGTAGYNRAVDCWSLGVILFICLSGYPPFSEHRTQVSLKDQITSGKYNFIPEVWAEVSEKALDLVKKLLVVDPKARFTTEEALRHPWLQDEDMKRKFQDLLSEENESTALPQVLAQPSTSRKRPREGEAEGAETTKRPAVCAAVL
Serine/threonine-protein kinase MRCK beta, sequence (Q9Y5S2 whole entry, the tested form may be a part): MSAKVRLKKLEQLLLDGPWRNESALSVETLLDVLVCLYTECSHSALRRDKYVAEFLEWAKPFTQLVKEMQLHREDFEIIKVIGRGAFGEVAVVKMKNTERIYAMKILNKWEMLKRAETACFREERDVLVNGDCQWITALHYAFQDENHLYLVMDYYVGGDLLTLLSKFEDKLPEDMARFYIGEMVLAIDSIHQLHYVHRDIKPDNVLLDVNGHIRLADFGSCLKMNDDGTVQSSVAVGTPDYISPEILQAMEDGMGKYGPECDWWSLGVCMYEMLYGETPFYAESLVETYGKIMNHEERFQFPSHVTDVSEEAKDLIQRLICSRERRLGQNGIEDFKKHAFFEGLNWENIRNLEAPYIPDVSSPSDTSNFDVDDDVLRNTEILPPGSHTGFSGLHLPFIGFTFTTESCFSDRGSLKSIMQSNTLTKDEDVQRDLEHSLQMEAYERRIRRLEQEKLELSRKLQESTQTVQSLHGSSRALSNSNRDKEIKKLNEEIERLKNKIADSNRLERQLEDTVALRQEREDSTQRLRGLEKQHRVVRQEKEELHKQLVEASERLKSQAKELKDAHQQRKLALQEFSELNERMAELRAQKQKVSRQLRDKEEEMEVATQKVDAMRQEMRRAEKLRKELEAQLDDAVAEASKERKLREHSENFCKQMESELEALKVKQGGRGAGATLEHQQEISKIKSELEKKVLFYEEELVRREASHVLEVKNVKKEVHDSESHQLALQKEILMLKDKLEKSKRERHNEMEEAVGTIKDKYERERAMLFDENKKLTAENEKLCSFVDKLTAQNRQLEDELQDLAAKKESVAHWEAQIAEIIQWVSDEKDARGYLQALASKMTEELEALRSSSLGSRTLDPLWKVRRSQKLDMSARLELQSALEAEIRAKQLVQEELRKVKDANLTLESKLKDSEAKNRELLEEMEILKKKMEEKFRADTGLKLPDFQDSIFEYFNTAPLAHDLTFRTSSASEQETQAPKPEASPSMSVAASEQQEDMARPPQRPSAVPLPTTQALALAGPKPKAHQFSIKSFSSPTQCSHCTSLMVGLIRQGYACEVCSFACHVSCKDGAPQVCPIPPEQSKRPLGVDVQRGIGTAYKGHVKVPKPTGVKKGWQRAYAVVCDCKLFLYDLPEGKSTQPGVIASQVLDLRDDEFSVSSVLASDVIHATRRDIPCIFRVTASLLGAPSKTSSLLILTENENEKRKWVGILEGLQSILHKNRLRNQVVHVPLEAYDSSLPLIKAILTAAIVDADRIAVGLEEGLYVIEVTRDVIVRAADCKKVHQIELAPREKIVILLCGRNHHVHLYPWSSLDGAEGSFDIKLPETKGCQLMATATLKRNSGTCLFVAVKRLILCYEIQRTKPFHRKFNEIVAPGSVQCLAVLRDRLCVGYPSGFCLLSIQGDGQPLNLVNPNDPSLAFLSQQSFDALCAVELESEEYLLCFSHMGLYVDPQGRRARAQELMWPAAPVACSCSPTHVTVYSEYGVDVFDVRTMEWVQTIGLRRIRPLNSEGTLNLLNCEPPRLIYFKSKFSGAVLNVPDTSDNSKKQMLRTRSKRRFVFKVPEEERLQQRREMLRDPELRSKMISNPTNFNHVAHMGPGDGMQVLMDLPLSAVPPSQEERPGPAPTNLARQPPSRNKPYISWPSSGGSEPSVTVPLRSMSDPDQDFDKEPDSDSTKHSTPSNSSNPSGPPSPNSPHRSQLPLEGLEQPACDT
Serine/threonine-protein kinase D2, sequence (Q9BZL6 whole entry): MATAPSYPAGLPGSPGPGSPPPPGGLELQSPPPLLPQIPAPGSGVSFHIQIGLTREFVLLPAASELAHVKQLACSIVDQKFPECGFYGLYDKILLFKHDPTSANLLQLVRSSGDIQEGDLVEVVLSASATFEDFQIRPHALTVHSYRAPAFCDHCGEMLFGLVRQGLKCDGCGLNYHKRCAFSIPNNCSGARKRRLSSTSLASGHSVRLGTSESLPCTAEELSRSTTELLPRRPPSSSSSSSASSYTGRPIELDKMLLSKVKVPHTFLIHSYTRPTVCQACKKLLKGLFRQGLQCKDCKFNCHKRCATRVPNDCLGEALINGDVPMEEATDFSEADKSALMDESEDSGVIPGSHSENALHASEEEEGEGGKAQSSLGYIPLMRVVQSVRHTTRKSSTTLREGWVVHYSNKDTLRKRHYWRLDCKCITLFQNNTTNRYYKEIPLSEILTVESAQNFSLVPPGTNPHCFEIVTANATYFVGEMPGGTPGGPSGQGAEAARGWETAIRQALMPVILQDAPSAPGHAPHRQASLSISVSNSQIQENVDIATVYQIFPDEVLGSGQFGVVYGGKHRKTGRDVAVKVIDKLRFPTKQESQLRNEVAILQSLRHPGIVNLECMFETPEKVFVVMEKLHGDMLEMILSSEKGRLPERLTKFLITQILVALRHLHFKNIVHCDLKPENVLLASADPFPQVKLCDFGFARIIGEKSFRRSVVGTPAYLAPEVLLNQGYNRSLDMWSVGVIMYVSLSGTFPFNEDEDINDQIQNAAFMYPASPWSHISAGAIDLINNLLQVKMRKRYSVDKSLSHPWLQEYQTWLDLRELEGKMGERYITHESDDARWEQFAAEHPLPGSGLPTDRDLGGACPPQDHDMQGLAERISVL
Dual specificity protein kinase CLK1, sequence (P49759 whole entry, the tested form may be a part): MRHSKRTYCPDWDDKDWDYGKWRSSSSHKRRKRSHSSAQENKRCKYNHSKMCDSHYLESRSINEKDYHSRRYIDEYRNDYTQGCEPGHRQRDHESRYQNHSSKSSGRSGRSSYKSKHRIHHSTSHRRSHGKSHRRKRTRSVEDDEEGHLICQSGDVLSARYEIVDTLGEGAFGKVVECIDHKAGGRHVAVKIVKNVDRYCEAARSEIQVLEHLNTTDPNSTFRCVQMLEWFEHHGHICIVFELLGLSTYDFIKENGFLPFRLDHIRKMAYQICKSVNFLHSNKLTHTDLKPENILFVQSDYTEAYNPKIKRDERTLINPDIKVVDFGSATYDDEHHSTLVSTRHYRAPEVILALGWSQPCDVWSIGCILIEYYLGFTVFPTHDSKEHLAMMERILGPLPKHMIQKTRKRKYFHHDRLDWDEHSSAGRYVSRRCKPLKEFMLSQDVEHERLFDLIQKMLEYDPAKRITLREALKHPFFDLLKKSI

CN(C)c1ccc(C(=O)Nc2cccc(NC(=O)COc3ccc4c(=O)ccoc4c3)c2)cc1
> 10 µM: all assays above
